Assay results published in ChEMBL document CHEMBL1144347, “Endothelin-converting enzyme-1 inhibition and growth of human glioblastoma cells” (J Med Chem, 2005).

What was measured:
[1] = target: T1, Endothelin-converting enzyme 1 (Homo sapiens, UniProt P42892); test: Inhibitory concentration against human ECE-1 by RIA
T1 sequence (P42892 whole entry): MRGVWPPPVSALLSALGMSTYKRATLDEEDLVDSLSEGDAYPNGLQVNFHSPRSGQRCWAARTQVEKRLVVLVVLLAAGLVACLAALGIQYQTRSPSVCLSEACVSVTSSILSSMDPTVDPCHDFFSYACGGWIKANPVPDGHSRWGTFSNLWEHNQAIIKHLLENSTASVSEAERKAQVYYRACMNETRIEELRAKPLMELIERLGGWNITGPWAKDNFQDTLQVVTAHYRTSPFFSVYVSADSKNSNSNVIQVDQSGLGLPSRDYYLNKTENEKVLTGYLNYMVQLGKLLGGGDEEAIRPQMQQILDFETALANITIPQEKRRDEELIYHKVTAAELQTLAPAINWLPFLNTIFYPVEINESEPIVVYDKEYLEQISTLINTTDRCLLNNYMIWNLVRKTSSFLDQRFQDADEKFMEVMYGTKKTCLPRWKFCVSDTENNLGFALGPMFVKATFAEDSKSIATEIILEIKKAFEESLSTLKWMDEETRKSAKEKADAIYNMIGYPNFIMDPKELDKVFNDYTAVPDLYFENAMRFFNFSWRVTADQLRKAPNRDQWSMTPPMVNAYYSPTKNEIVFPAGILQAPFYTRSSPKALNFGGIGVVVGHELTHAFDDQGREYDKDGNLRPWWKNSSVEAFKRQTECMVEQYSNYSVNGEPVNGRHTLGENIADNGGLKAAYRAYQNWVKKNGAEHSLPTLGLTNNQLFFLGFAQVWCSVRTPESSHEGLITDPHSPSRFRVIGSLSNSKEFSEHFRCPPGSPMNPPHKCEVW

[2] = target: T1, Endothelin-converting enzyme 1; test: Inhibitory concentration against human ECE-1 expressed in MDCK cells; assay type: cell-based
Neprilysin = Neprilysin (Homo sapiens, UniProt P08473); test: Inhibitory concentration against Neprilysin
Neprilysin, sequence (P08473 whole entry): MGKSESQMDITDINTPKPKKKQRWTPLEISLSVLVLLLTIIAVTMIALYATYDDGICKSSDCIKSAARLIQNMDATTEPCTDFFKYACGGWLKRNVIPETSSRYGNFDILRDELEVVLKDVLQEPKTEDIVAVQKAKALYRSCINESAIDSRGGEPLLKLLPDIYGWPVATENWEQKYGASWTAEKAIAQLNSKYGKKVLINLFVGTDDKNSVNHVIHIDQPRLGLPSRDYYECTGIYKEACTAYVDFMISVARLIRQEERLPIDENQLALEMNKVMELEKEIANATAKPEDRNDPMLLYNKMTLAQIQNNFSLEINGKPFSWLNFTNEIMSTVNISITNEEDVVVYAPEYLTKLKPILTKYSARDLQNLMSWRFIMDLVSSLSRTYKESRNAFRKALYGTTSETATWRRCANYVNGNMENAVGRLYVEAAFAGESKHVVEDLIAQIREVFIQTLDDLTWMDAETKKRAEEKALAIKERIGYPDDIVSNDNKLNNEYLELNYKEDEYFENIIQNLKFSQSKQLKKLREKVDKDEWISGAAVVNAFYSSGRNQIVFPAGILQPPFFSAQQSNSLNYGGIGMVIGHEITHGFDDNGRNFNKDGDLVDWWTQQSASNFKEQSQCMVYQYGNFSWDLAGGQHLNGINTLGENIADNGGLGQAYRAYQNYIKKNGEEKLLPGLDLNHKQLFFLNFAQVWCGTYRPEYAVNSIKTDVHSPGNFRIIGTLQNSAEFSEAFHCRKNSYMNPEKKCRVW

[3] = target: Angiotensin-converting enzyme (Homo sapiens, UniProt P12821); test: Inhibitory concentration against human angiotensin I converting enzyme
Angiotensin-converting enzyme, sequence (P12821 whole entry): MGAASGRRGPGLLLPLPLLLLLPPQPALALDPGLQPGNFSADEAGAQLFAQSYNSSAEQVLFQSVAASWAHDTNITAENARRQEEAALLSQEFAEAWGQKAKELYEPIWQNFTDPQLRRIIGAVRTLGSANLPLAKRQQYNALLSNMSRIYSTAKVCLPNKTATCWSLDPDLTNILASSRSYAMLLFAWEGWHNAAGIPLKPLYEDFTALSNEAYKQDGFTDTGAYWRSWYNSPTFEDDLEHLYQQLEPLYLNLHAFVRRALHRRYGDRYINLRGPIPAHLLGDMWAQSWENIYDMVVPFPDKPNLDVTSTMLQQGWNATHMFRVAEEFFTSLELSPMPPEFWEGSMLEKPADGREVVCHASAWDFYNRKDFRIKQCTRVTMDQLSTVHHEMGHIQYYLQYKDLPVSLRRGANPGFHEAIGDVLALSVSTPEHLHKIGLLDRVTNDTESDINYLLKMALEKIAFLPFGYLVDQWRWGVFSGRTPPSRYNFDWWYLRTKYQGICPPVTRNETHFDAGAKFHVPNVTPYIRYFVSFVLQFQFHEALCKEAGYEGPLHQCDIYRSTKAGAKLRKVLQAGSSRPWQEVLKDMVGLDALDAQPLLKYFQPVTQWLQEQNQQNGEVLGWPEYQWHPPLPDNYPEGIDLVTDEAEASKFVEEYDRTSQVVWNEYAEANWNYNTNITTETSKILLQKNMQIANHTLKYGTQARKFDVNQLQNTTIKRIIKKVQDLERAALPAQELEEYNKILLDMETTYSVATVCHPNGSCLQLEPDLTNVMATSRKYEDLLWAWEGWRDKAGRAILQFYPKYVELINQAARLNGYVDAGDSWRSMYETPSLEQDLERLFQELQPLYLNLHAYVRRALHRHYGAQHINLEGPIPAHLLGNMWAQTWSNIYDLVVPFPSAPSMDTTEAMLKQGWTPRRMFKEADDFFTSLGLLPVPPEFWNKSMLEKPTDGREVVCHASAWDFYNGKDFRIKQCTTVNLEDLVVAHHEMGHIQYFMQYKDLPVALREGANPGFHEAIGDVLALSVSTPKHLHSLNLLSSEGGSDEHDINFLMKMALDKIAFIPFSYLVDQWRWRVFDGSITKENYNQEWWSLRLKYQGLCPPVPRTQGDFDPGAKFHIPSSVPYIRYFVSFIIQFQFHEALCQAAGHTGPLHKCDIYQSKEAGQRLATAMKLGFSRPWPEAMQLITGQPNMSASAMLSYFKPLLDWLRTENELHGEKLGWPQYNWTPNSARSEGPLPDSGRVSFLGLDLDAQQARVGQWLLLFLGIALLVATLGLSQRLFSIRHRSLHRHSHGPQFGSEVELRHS

cells [4] = details: Homo sapiens, Glioblastoma
Description: (§1) Inhibitory concentration against DNA synthesis in LNZ308 glioblastoma cells

cells [5] = details: Homo sapiens, Glioblastoma; remark: listed apart in the source
Description: Inhibitory concentration againstDNA synthesis in LN18 glioblastoma cells

cells [6] = details: Homo sapiens, Glioblastoma; remark: listed apart in the source
Description: as §1

cells [7] = details: Homo sapiens, Glioblastoma; remark: listed apart in the source
Description: Inhibitory concentration against DNA synthesis in LN18 glioblastoma cells

[8] = Inhibitory concentration of the compound was determined against DNA synthesis in LN18 glioblastoma cells; assay type: functional, cell-based; details: Homo sapiens

| Compound | IC50 [1] | IC50 [2] | IC50 (Neprilysin) | IC50 [3] | IC50 (cells [4]) | IC50 (cells [5]) | IC50 (cells [6]) | IC50 (cells [7]) | IC50 [8] |
| --- | --- | --- | --- | --- | --- | --- | --- | --- | --- |
| CC(=O)S[C@@H]1C[C@@H](COCc2cc(F)c(F)cc2F)N(C(=O)Oc2cccc3c2OCCO3)C1 | 0.0069 µM | 0.0765 µM | > 100 µM | > 100 µM | 16 µM | 14 µM |  |  |  |
| Cc1ccc(S(=O)(=O)NN(C)C(=O)C2C[C@@H](S)CN2S(=O)(=O)c2ccc3ccccc3c2)cc1 (some centres undefined) | 0.0613 µM | 2.53 µM | 39.2 µM | 14.6 µM |  |  |  |  |  |
| O=C(S[C@@H]1C[C@@H](COCc2cc(F)c(F)cc2F)N(C(=O)Oc2cccc3c2OCCO3)C1)c1ccccc1 | 0.0497 µM | 0.48 µM | > 100 µM | > 100 µM |  |  | 20 µM | 18 µM |  |
| COC(=O)c1ccccc1NC(=O)CN(C)C(=O)C1C[C@@H](S)CN1S(=O)(=O)c1ccc2ccccc2c1 (some centres undefined) | 0.0808 µM | 10.9 µM | 81.9 µM | 36.6 µM |  |  | 16 µM | 12 µM |  |
| O=P(O)(O)C(Cc1ccc2ccccc2c1)N[C@@H](Cc1ccc(-c2ccccc2)cc1)c1nnn[nH]1 (some centres undefined) [CGS-314447] | 0.02 µM |  |  |  |  |  |  |  |  |
| CCCc1cnc(N2C[C@H](S)C[C@H]2CNCc2cc(F)ccc2F)nc1 | 0.0104 µM | 0.0729 µM | > 100 µM | 31.5 µM | 40 µM |  |  |  | 19 µM |
| CC(C)OC(=O)N1C[C@H](S)C[C@H]1CNCc1cc(F)ccc1F | 0.016 µM | 1.09 µM | > 100 µM | > 100 µM |  |  | 50 µM | 27 µM |  |
| COC(=O)c1ccccc1OC(=O)N1CC(S)CC1COCc1cc(F)c(F)cc1F (centres undefined) | 0.0012 µM | 0.067 µM | > 100 µM | 13.4 µM |  |  |  |  |  |
